Laboratory results as given in patent publication US9737487B2, “Cyclodextrin compositions encapsulating a selective ATP inhibitor and uses thereof” (The Johns Hopkins University, priority 2014, dated 2017).
Structures can show the parent of a compound that is named as a salt.

Key:
lucMiaPaCa-2 cells = assay: Monolayer cell culture viability assay (CellTiter-Glo), normoxic or hypoxic, lucMiaPaCa-2; type: cell-based; conditions: Homo sapiens; normoxic, 72 hrs. exposure; barely achieved
Protocol: (§1) Two human pancreatic adenocarcinoma cell lines, lucMiaPaCa-2 (stably transfected with the luciferase-aminoglycoside phosphotransferase fusion gene, kindly provided by Dr. Phuoc T. Tran) and Suit-2 (kindly provided by Dr. Shinichi Ota, Japan) were cultured in RPMI or MEM media, respectively, both supplemented with 10% FBS and 1% Penicillin-Streptomycin. The effects of different drugs on cell viability were determined by quantifying intracellular adenosine triphosphate (ATP) levels using a luminescence-based kit (CellTiter-Glo, Promega) and a multilable 96-well plate (Costar). The accuracy and reproducibility of viability measurements using this luminiscence-based kit in lucMiaPaCa-2 cells was confirmed using the Dual-Reporter assay kit (Promega). In brief, 5×10^3 cells were seeded in triplicate and incubated for 72 hrs. under normoxic or hypoxic (1% O2-level, balanced with CO2 and nitrogen within a controlled atmosphere chamber) conditions. Indicated amounts of free 3-BrPA, 1:1-β-CD-3-BrPA or β-CD as a control were dissolved in PBS and added to the medium for 24 hrs. of treatment. For the experiments with gemcitabine, cells were incubated for 24 hrs. prior to a 72 hrs. exposure to the drug. Cell viability was determined following the manufacturer's protocol.

Suit-2 cells [1] = assay: Monolayer cell culture viability assay (CellTiter-Glo), Suit-2; type: cell-based; conditions: Homo sapiens, normoxic, 72 hrs. exposure, barely achieved
Protocol: as §1

[2] = tested on: orthotopic MiaPaCa-2 tumors; assay: Orthotopic lucMiaPaCa-2 xenograft, systemic treatment with BLI follow-up, survival and necropsy (Example 6); type: in vivo, mice
Protocol: Male athymic nude mice (body weight, 20-25 g; 4 weeks old; Crl:NU (NCr)-Fox1^nu; Charles River Laboratory, Germantown, Md., USA) were used in accordance with institutional guidelines under approved Animal Care and Use Committee protocols. Mice were maintained in laminar flow rooms at constant temperature and humidity with food and water given ad libitum. Orthotopic xenograft tumors were generated by implantation of 1.5×10^6 lucMiaPaCa-2, suspended in 50 μl PBS, into the tail of the pancreas in anesthetized mice. To accomplish this, mice were placed into a clean anesthesia induction chamber (oxygen flow rate, 1 liter/minute; isoflurane concentration of 3-4%). Upon loss of the righting reflex, animals were placed on the surgical procedure surface, where a nose cone was used to maintain anesthesia (oxygen flow, 0.8 liters/minute; Isoflurane concentration, 1.5-2%). A small, left abdominal flank incision was made, and the pancreas was exteriorized to inject the cell solution using a 30 G Hamilton syringe. A successful subcapsular intrapancreatic injection was identified by the appearance of a fluid bleb without intraperitoneal leakage. The abdominal cavity was closed with a double-layer of non-absorbable suture material (Kim et al. (2009) Nat. Protocol. 4:1670-1680).
Tumor viability was confirmed via in vivo bioluminescence imaging (BLI) on day 7 after the surgical implantation. Anesthetized tumor-bearing mice were injected intraperitoneally with D-luciferin 150 mg/kg and optically imaged 5 minutes later using the IVIS 200 system (Xenogen). The pseudocolor image representing the spatial distribution of photons was overlaid on a previously acquired grayscale photographic image. A region of interest (ROI) was created to include the optical tumor image. Signal intensity was quantified within the ROI in photons/second/squared centimeter/steradian (p/s/cm2/Sr) after a 10-second exposure using Living Image software (Xenogen). Additionally, orthotopic growth of the tumors was confirmed prior to treatment using small-animal ultrasound imaging (USI). In brief, anesthetized mice were subjected to examination using the VEVO2100 (Visual Sonics Inc., Toronto, Canada, kindly provided by Dr. Harry C. Dietz) by applying a MS-550D MicroScan transducer probe with 40 MHz (broadband with 22-55 MHz). Tumor localization was confirmed using the cranial tip of the left kidney and the caudal tip of the spleen as anatomic landmarks (Ota et al. (2013) Target. Oncol. 8:145-151; Tuli et al. (2012) Translat. Oncol. 5:77-84). […]

[3] = tested on: matrix-metalloproteinase 9 (MMP-9); assay: MMP-9 secretion by gelatin zymography and immunoblotting, Suit-2; type: cell-based, human; conditions: 24 hrs., dose that did not induce apoptosis or reduce cell viability
Protocol: (§2) Zymography assays were performed to determine the activity of secreted MMP-9. Accordingly, 4×10^6 Suit-2 cells and 2.5×10^6 lucMiaPaCa-2 cells were seeded in 75 cm^2-flasks and incubated overnight at 37° C. under normoxic conditions. The following day, fresh FBS-free medium containing different concentrations of 3-BrPA was added and cells were incubated for an additional 24 hrs. Subsequently, supernatants were collected, filtered, and the final protein concentrations were determined using the 2D Quant Kit (GE Healthcare). After adjustment for concentration, each sample was loaded onto two 10% gelatin zymography gels (Novex, Invitrogen). Following electrophoresis, proteins in one of the two gels were renaturated and enzymatic digestion was allowed overnight at 37° C. in a developing buffer. The gel was stained with 4 parts 0.1% Coomassie Brilliant Blue in 1 part 100% methanol for 24 hrs. and washed with distilled (DI) water until digested areas were detectable as white bands. Western Blot analysis was performed using the duplicate gel. Proteins were blotted onto a PVDF-Membrane and blocked using 5% skimmed milk in 1×TBS and 0.1% Tween in DI (TBST). […] The HRP provided an […] signal (ECL Kit, GE Healthcare), which was analyzed with ImageJ 1.46r software (Wayne Rasband, National Institute of Health) and used to quantify signal intensity by comparing line integrals.

Suit-2 cells [4] = assay: Matrigel invasion assay, Suit-2; type: cell-based, human; conditions: sub-lethal concentrations, 72 hrs.
Protocol: (§3) The ability of 3-BrPA to inhibit tumor invasion was studied using a matrigel invasion assay, as well as gelatin zymography (Hu and Beeton (2010) J. Visual. Exp. 45:2445; Scott et al. (2011) J. Visual. Exp. 58:e3525). For the matrigel invasion assays, a coating buffer containing 0.01 M Tris and 0.7% sodium chloride was prepared and used to dilute the matrigel basement membrane (BD Biosciences, #356234) to 300 ug/ml. Subsequently, Boyden chambers (Transwell, Corning; 6.5 mm-diameter, 8 um pore size) were coated with 100 μl matrigel solution and stored at 37° C. for 2 hrs. to allow for gelatination. Approximately 7.5×10^4 cells were resuspended in 500 μl FBS-free medium and plated into the upper chamber of the insert, which was then placed into a 24-well plate containing […] FBS-containing medium. After overnight incubation at 37° C., various amounts of 3-BrPA dissolved in PBS were added to the upper chamber. Fourty-eight hours later, non-invasive cells were removed from the matrigel with a cotton swab. Invaded cells adherent to the bottom side of the permeable insert were fixed and stained with the Diff Quik Stain Kit (Polysciences Inc.). […] Invasion of cells was quantified by measuring the area of stained cells after treatment compared to untreated samples at 10× magnification.

MiaPaCa-2 cells = assay: Matrigel invasion assay, MiaPaCa-2; type: cell-based, human; conditions: sub-lethal concentrations, 48 hrs.
Protocol: as §3

[5] = in vivo, after systemic administration; cited from earlier work
[6] = Comparative dose escalation studies in non-tumor-bearing animals; type: in vivo, mice; conditions: after a single injection
Protocol: The anti-cancer efficacy of systemically delivered β-CD-3-BrPA was tested using a xenograft model of human pancreatic cancer in athymic nude mice. Prior to choosing the therapeutic dose for more detailed studies, comparative dose escalation studies in non-tumor-bearing animals were performed for both β-CD-3-BrPA and free 3-BrPA. […] animals with orthotopically-implanted and BLI- and USI-confirmed MiaPaCa-2 tumors were then randomized to receive intraperitoneal (i.p.) injections of β-CD-3-BrPA (N=21), gemcitabine (N=7), or β-CD (N=7). An additional group of animals with orthotopic implants (N=7) was treated with free 3-BrPA. […] At the end of the experiment (Day 28), only 2/7 animals (28%) treated with the free drug were still alive (FIG. 12, Panel C). […] After four weeks of treatment, a comparison of BLI signal intensity between the groups was performed. […] After achieving this endpoint, animals were sacrificed and tumors were harvested for further analysis. All animals were subjected to necropsies and organs (brain, heart, lungs, bowel, liver, and kidneys) were harvested for the analysis of potential tissue damage.

[7] = tested on: subcutaneous pancreatic cancer xenografts; conditions: 5 mg/kg, twice per week, systemic; cited from earlier work
[8] = tested on: matrix-metalloproteinase 9 (MMP-9); assay: MMP-9 secretion by gelatin zymography and immunoblotting, MiaPaCa-2; type: cell-based, human; conditions: 24 hrs., dose that did not induce apoptosis or reduce cell viability
Protocol: as §2

## Nc1ccn([C@@H]2O[C@H](CO)[C@@H](O)C2(F)F)c(=O)n1 [gemcitabine, gemcitabine hydrochloride salt]
lucMiaPaCa-2 cells
  IC50: 100 nM
Suit-2 cells [1]
  IC50: 100 nM
[2]; after four weeks of treatment
  BLI signal increase as compared to baseline: 60 fold

## O=C(O)C(=O)CBr [3-BrPA, 3-bromopyruvate]
[3]
  concentration at which marked reduction in the secretion of MMP-9 begins: 6.25 µM
Suit-2 cells [4]
  drug concentration showing a reduction in invasion (as low as): 12.5 µM
MiaPaCa-2 cells
  drug concentration showing a reduction in invasion (as low as): 12.5 µM
[5]
  time of inactivation through interaction with serum proteins (as early as): 2 to 3 min
[6]
  median lethal dose (LD50): 10 mg/kg
[7]
  efficacy of 3-BrPA alone: did not report any significant efficacy
[8]
  concentration at which marked reduction in the secretion of MMP-9 begins: 6.25 µM
[2]; daily i.p. 5 mg/kg in 500 μl saline
  animals died before the acquisition of the first follow-up BLI: 3/7
[2]; daily i.p. 5 mg/kg, 28 days
  loss of animals at the end of the experiment (treatment-related toxicity, Kaplan-Meier): 5/7
[2]; daily i.p. 5 mg/kg, Day 28
  animals still alive at the end of the experiment: 2/7
